In patent publication US12391737B2, “Soluble NPY2 receptor agonists” (Boehringer Ingelheim International GmbH, priority 2020, dated 2025):

Legend:
[1] = target: T1, Human Neuropeptide Y2 Receptor (Homo sapiens, UniProt P49146); experiment: Radioligand binding competition assay (RLB); conditions: Table 3, 125I-PYY(1-36) competition; read-out: Ki
T1 construct: purchased CHEMICON HTS066M
T1 sequence (P49146 1-381): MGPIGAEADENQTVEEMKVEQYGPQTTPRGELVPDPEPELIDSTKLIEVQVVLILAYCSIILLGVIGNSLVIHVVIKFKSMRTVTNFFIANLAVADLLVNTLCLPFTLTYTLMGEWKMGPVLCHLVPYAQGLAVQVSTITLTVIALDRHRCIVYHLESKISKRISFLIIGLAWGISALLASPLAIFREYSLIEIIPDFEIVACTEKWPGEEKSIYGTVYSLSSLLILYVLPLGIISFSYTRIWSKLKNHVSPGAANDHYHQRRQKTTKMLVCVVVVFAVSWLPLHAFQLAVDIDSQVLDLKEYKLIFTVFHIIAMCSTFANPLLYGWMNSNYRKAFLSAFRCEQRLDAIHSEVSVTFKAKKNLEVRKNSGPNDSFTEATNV
Outline: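 IC50 values come from sigmoidal dose-response fits of scintillation counts after peptides competed for radioligand binding at receptor membranes (0.5 μg protein/well). Incubation ran 2 h at room temperature in HEPES buffer, pH 7.4, with Mg2+, Ca2+ and 0.2% ovalbumin.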

[2] = Solubility determination; conditions: for Sol6: pH 6; for Sol7: pH 7
Outline: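 Sample: TFA-salt peptide at 10 mg/ml target in 0.1 M Na diphosphate, pH 6.4 or 7.0, shaken 2 h RT, filtered, diluted to 1 mg/ml.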

[3] = target: T2, human NPY5 receptor (hY5R) (Homo sapiens, UniProt Q15761); experiment: HTRF cAMP Gi assay, hY5R
T2 sequence (Q15761 1-445): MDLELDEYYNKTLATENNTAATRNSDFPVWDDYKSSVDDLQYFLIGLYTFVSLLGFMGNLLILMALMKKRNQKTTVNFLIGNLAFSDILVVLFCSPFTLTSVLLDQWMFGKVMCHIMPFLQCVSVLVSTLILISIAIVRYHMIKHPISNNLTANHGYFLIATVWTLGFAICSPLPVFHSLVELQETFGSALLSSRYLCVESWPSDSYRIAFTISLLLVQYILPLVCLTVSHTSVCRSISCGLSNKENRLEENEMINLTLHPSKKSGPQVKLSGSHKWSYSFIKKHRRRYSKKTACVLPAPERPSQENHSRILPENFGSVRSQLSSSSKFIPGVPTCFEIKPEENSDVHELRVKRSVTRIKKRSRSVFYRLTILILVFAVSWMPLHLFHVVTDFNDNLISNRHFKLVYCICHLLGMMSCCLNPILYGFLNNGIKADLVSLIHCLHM

Row | Ki [1] [nM] | Sol6 [2] [mg/mL] | Sol7 [2] [mg/mL] | EC50 [3] [nM] | SMILES
1 | 2.81 | 10.0 | 8.3 | > 5000 | CC(C)CC(=O)N[C@@H](C)C(=O)N1CCC[C@H]1C(=O)N[C@@H](CCC(=O)O)C(=O)N[C@@H](CCCCNC(=O)CCCCCNC(=O)CC[C@H](NC(=O)CCCCCCCCCCCCCCCCC(=O)O)C(=O)O)C(=O)N1CCC[C@H]1C(=O)N[C@@H](CCC(=O)O)C(=O)N[C@@H](CCC(=O)O)C(=O)N[C@@H](CC(=O)O)C(=O)N[C@@H](C)C(=O)N[C@H](C(=O)N1CCC[C@H]1C(=O)N[C@@H](CCC(=O)O)C(=O)N[C@@H](CCC(=O)O)C(=O)N[C@@H](CC(C)C)C(=O)N[C@@H](CCC(N)=O)C(=O)N[C@@H](CCCCN)C(=O)N[C@@H](Cc1ccc(O)cc1)C(=O)N[C@@H](Cc1ccc(O)cc1)C(=O)N[C@H](C(=O)N[C@@H](CO)C(=O)N[C@@H](CC(C)C)C(=O)N[C@@H](CCCNC(=N)N)C(=O)N[C@@H](Cc1c[nH]cn1)C(=O)N[C@@H](Cc1ccc(O)cc1)C(=O)N[C@@H](Cc1ccc(O)cc1)C(=O)N[C@@H](CC(N)=O)C(=O)N[C@@H](Cc1c[nH]c2ccccc12)C(=O)N[C@@H](CC(C)C)C(=O)N[C@H](C(=O)N[C@@H](CCCNC(=N)N)C(=O)N[C@@H](CCC(N)=O)C(=O)N[C@@H](CCCNC(=N)N)C(=O)N[C@@H](Cc1ccc(O)cc1)C(N)=O)[C@@H](C)O)C(C)C)[C@@H](C)O [Compound 16, N{alpha-4}-(3-methylbutanoyl)-N{epsilon-7}-(6-[(4S)-4-carboxy-4-(17-carboxyheptadecanamido)butanamido]hexanoyl)[4A,7K,9E,13T,18Q,19K,22V,28Y,30W,31L]-hPYY(4-36)]
2 | 12.6 | 9.8 | 10.0 | > 5000 | CC(C)CC(=O)N[C@@H](C)C(=O)N1CCC[C@H]1C(=O)N[C@@H](CCC(=O)O)C(=O)N[C@@H](CCCCNC(=O)CCCCCNC(=O)CC[C@H](NC(=O)CCCCCCCCCCCCCCCCC(=O)O)C(=O)O)C(=O)N1CCC[C@H]1C(=O)N[C@@H](CCC(=O)O)C(=O)N[C@@H](CCC(=O)O)C(=O)N[C@@H](CCC(=O)O)C(=O)N[C@@H](C)C(=O)N[C@@H](CO)C(=O)N1CCC[C@H]1C(=O)N[C@@H](CCC(=O)O)C(=O)N[C@@H](CCC(=O)O)C(=O)N[C@@H](CC(C)C)C(=O)N[C@@H](CCC(N)=O)C(=O)N[C@@H](CCCNC(=N)N)C(=O)N[C@@H](Cc1ccc(O)cc1)C(=O)N[C@@H](Cc1ccc(O)cc1)C(=O)N[C@H](C(=O)N[C@@H](CO)C(=O)N[C@@H](CC(C)C)C(=O)N[C@@H](CCCNC(=N)N)C(=O)N[C@@H](Cc1c[nH]cn1)C(=O)N[C@@H](Cc1ccc(O)cc1)C(=O)N[C@@H](Cc1ccc(O)cc1)C(=O)N[C@@H](CC(N)=O)C(=O)N[C@@H](Cc1c[nH]c2ccccc12)C(=O)N[C@@H](CC(C)C)C(=O)N[C@H](C(=O)N[C@@H](CCCNC(=N)N)C(=O)N[C@@H](CCC(N)=O)C(=O)N[C@@H](CCCNC(=N)N)C(=O)N[C@@H](Cc1ccc(O)cc1)C(N)=O)[C@@H](C)O)C(C)C [Compound 23, N{alpha-4}-(3-methylbutanoyl)-N{epsilon-7}-(6-[(4S)-4-carboxy-4-(17-carboxyheptadecanamido)butanamido]hexanoyl)[4A,7K,9E,11E,18Q,22V,28Y,30W,31L]-hPYY(4-36)]
3 | 2.39 | 9.5 | 9.5 | > 5000 | CC[C@H](C)[C@H](NC(=O)[C@H](CCC(=O)O)NC(=O)[C@H](CCC(=O)O)NC(=O)[C@@H]1CCCN1C(=O)[C@H](CO)NC(=O)[C@H](C)NC(=O)[C@H](CC(=O)O)NC(=O)[C@H](CCC(=O)O)NC(=O)[C@H](CCC(=O)O)NC(=O)[C@@H]1CCCN1C(=O)[C@H](CCCCNC(=O)CCCCCNC(=O)CC[C@H](NC(=O)CCCCCCCCCCCCCCCCC(=O)O)C(=O)O)NC(=O)[C@H](CCC(=O)O)NC(=O)[C@@H]1CCCN1C(=O)[C@H](C)NC(=O)CC(C)C)C(=O)N[C@@H](CCC(N)=O)C(=O)N[C@@H](CCCNC(=N)N)C(=O)N[C@@H](Cc1ccc(O)cc1)C(=O)N[C@@H](Cc1ccc(O)cc1)C(=O)N[C@H](C(=O)N[C@@H](CCC(=O)O)C(=O)N[C@@H](CC(C)C)C(=O)N[C@@H](CCCNC(=N)N)C(=O)N[C@@H](Cc1c[nH]cn1)C(=O)N[C@@H](Cc1ccc(O)cc1)C(=O)N[C@@H](Cc1ccc(O)cc1)C(=O)N[C@@H](CC(N)=O)C(=O)N[C@@H](Cc1c[nH]c2ccccc12)C(=O)N[C@@H](CC(C)C)C(=O)N[C@H](C(=O)N[C@@H](CCCNC(=N)N)C(=O)N[C@@H](CCC(N)=O)C(=O)N[C@@H](CCCNC(=N)N)C(=O)N[C@@H](Cc1ccc(O)cc1)C(N)=O)[C@@H](C)O)C(C)C [Compound 52, N{alpha-4}-(3-methylbutanoyl)-N{epsilon-7}-(6-[(4S)-4-carboxy-4-(17-carboxyheptadecanamido)butanamido]hexanoyl)-[4A,7K,9E,17I,18Q,22V,23E,28Y,30W,31L]-hPYY(4-36)]
4 | 1.41 | 9.9 | 9.3 | > 5000 | CC[C@H](C)[C@H](NC(=O)[C@H](CCC(=O)O)NC(=O)[C@H](CCC(=O)O)NC(=O)[C@@H]1CCCN1C(=O)[C@H](CO)NC(=O)[C@H](C)NC(=O)[C@H](CC(=O)O)NC(=O)[C@H](C)NC(=O)[C@H](CCC(=O)O)NC(=O)[C@@H]1CCCN1C(=O)[C@H](CCCCNC(=O)CCCCCNC(=O)CC[C@H](NC(=O)CCCCCCCCCCCCCCCCC(=O)O)C(=O)O)NC(=O)[C@H](CCC(=O)O)NC(=O)[C@@H]1CCCN1C(=O)[C@H](C)NC(=O)CC(C)C)C(=O)N[C@@H](CCC(N)=O)C(=O)N[C@@H](CCCNC(=N)N)C(=O)N[C@@H](Cc1ccc(O)cc1)C(=O)N[C@@H](Cc1ccc(O)cc1)C(=O)N[C@H](C(=O)N[C@@H](CO)C(=O)N[C@@H](CC(C)C)C(=O)N[C@@H](CCCNC(=N)N)C(=O)N[C@@H](Cc1c[nH]cn1)C(=O)N[C@@H](Cc1ccc(O)cc1)C(=O)N[C@@H](Cc1ccc(O)cc1)C(=O)N[C@@H](CC(N)=O)C(=O)N[C@@H](Cc1c[nH]c2ccccc12)C(=O)N[C@@H](CC(C)C)C(=O)N[C@H](C(=O)N[C@@H](CCCNC(=N)N)C(=O)N[C@@H](CCC(N)=O)C(=O)N[C@@H](CCCNC(=N)N)C(=O)N[C@@H](Cc1ccc(O)cc1)C(N)=O)[C@@H](C)O)C(C)C [Compound 140, N{alpha-4}-(3-methylbutanoyl)-N{epsilon-7}-(6-[(4S)-4-carboxy-4-(17-carboxyheptadecanamido)butanamido]hexanoyl)-[4A,7K,9E,10A,17I,18Q,22V,28Y,30W,31L]-hPYY(4-36)]
